From US7696251B2, “Method for inhibiting neuronal cell death induced by oxidative glutamate toxicity” (Incorporated National University Iwate University, priority 2007, dated 2010)
Where two headings read alike, the source gives them in different places.

Key:
[1] = tested on: HT22 cells; test: Oxidative glutamate toxicity in HT22 cells, MTT assay; format: cell-based, mouse; conditions: for IC50: Mus musculus, read-out: concentration of half inhibition (IC50) of oxidative glutamate toxicity
Method: (§1) DPPD and its derivatives, shown in FIG. 1, were obtained from Ouchi Shinko Chemical Industrial (Tokyo, Japan). The compounds were dissolved in dimethyl sulfoxide (DMSO). The final concentration of DMSO in the culture medium was 0.1%. TNFα, actinomycin D (AcD), XA, XO, glutamate and H2O2 were purchased from Sigma (St. Louis, Mo., USA). HT22 cells were cultured and MTT assays were performed as described previously. Experiments presented here were repeated at least 3 times with 4 samples for each determination. The data are presented as the mean ±SD (for in vitro experiments). In order to examine the neuroprotective effects of DPPD, we employed the following 4 death-inducing agents: 1) glutamate (oxidative stress, transcription-dependent), 2) TNFα (receptor-mediated apoptosis, transcription-independent), 3) H2O2 (oxidative stress, transcription-independent) and 4) XA+XO (oxidative stress, transcription-independent). In FIG. 1, squares, DPPD; circles, D1; triangles, D2. […] HT22 cells were seeded into 24-well plates at a density of 4×10^4 cells/cm^2. After a 5-hr incubation, various concentrations of the compounds were added. One hour later, 5 mM of glutamate was added to the cultures, and 20 h thereafter, the cells were subjected to the MTT assay. The values, which represent the percentage of the control MTT activity, are means ±S.D.s (n=4).
In order to determine whether the inhibition was substantially specific to cell death by oxidative glutamate toxicity, the effects of these compounds on the cell death induced by various stimuli were examined. Adverting to FIGS. 2A, 2B, 2C and 2D, 2HT22 cells were seeded into 24-well plates at a density of 4×10^4 cells/cm^2. After a 5-hr incubation, various concentrations of DPPD were added. One hour later, the cells were treated for 20 h with glutamate (A), TNFα in the presence of 0.1 μg/ml AcD (B), H2O2 (C) and XO in the presence of 0.1 mg/ml of XA (D) and then were subjected to the MTT assay. The values, which represent the percentage of the control MTT activity, are means ±S.D.s (n=4).

[2] = tested on: HT22 cells; test: XA+XO-induced cell death of HT22 cells, MTT assay; format: cell-based, mouse; conditions: 15 or 30 mU/ml XO with 0.1 mg/ml XA, 20 h, MTT (FIG. 2D)
Method: as §1, with “(n=4). […]” for “(n=4).”

[3] = tested on: HT22 cells; test: H2O2-induced cell death of HT22 cells, MTT assay; format: cell-based, mouse; conditions: 30 or 50 μM H2O2, 20 h, MTT (FIG. 2C)
Method: as §1, with “(n=4). […]” for “(n=4).”

[4] = tested on: PC12 cells; conditions: DPPD at μM concentrations; associated with decrease in intracellular ROS levels [13]; cited from earlier work
[5] = tested on: HT22 cells; test: TNFα-induced cell death of HT22 cells (with AcD), MTT assay; format: cell-based, mouse; conditions: 0.1 or 1.0 ng/ml TNFα with 0.1 μg/ml AcD, 20 h, MTT (FIG. 2B)
Method: as §1, with “(n=4). […]” for “(n=4).”

[6] = HT-22, HT22 cells, 5 mM glutamate, 20 h, MTT assay

SMILES | IC50 [1, 6] [nM] | IC50 ([1]; HT-22, 20 h) [nM] | other results
Nc1ccccc1 [D4] | 94000 |  | 
c1ccc(Nc2ccc(Nc3ccccc3)cc2)cc1 [DPPD, N,N′-Diphenyl-p-phenylenediamine] |  | 7.7 | protection against XA+XO-induced cell death [2]: did not substantially protect; protection against H2O2-induced cell death [3]: did not substantially protect; protection of PC12 cells against lipid peroxide [4]: protected; protection against death induced by glutamate ([1]; DPPD at 1-10 nM, 5 or 10 mM glutamate, 20 h, MTT (FIG. 2A)): almost completely blocked; protection against TNFα-induced neuronal death [5]: substantially ineffective
Nc1ccc(Nc2ccccc2)cc1 [D2] | 26 |  | 
CC(C)Nc1ccc(Nc2ccccc2)cc1 [D1] |  | 5.4 | 
Nc1ccc(N)cc1 [D3] |  | 879 | 
